From PubChem BioAssay AID624491 (Broad Institute, 2012)

Test system: D54 ERlucT glycosylation luciferase reporter, luminescence, 24 h
Test: N-linked glycosylation inhibitors, luciferase reporter, dose response, D54 ERlucT cells, luminescence, cherry-picks (AID 624491);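 also: signal gain reflects blocked N-linked glycosylation of a luciferase reporter; actives raise luciferase signal so AC26 marks activators of the reporter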

Compound | AC26 [nM]
COc1cc(C(=O)OCCc2cc3ccccc3c(=O)o2)cc(OC)c1OC | 562
Cn1nc(-c2ccc(Cl)cc2)c2cc(C(=O)NC3CC3)sc21 | 6320
COc1ccc(-n2c(C)cc(C(=O)CCl)c2C)cc1 | 3980
CCOc1ccc(Br)cc1C(=O)Nc1ccc(C(=O)NCC(C)C)cc1 | 4090
COc1cc(OC)c(C2=NOC(C(=O)NCc3cccs3)C2)cc1Cl (stereo unspecified) | 5250
Cc1ccc(COc2cccc(/C=N/NC(=O)c3nnn(-c4nonc4N)c3C)c2)cc1 | 1160
Cc1ccc2c(c1)[C@H]1[C@H](CO2)[C@H](c2ccccc2)[C@]2(C)C(=O)Nc3ccc(Br)cc3C(=O)N12 | 1430
CC(Nc1nc(-c2cccnc2)nc2ccccc12)c1ccccc1 (stereo unspecified) | 2830
CC(=O)C1=C(C)OC(N)=C(C#N)C1c1cc([N+](=O)[O-])ccc1Cl (stereo unspecified) | 2900
CC(O)CN=c1cc(-c2ccccc2)oc2ccc(Cl)cc12 (stereo unspecified) | 1150
Nc1nc(-c2ccccc2)cc(N2CCCCC2)n1 | 4270
CN(C)S(=O)(=O)c1ccc(N2CCCC2)c(C(=O)Nc2nc(-c3ccc(F)cc3)cs2)c1 | 1550
COc1ccc(-c2n[nH]c3c2CN(C(=O)c2ccc(OC)c(OC)c2)CC3)cc1 | 1760
C=CCn1c(SCc2c(C)noc2C)nc2sc3c(c2c1=O)CCC(C)C3 (stereo unspecified) | 2060
CC(C)C(=O)Nc1ccc(C(=O)N/N=C/c2cc(Br)cc(Br)c2O)cc1 | 9890
Cc1ccc(S(=O)(=O)Cc2ccc(C(=O)N3CCN(c4cccc(C)c4C)CC3)o2)cc1 | 3450
Cc1noc2ncnc(Sc3ccccc3Cl)c12 | 12500
CCCn1c(CN2CCN(C(=O)OCC)CC2)nc2cc(NC(=O)CC)ccc21 | 9150
CC(=O)Nc1cccc(-c2ccnc3c2CC(C(=O)NCCc2ccccc2)O3)c1 (stereo unspecified) | 1910
CN(Cc1ccccc1)c1nc2c(c(=O)[nH]c(=O)n2C)n1CCCc1ccccc1 | 2830
COc1cccc(N2[C@@H](CC(C)=O)c3ccc(/C=C/C(C)=O)cc3S2(=O)=O)c1 | 3280
CCOc1ccc(S(=O)(=O)N2CCN=C2c2ccccc2)cc1 | 3390
COc1ccc(CCn2c(=N)c(S(=O)(=O)c3ccc(C)cc3)cc3c(=O)n4ccccc4nc32)cc1 | 988

Compound | AC26 [nM]
Cc1ccc(C)c(Cn2nnc3c(=O)[nH]c(C4CCN(C(=O)c5ccco5)CC4)nc32)c1 | 1110
COc1ccccc1-c1csc(C(NC(C)=O)c2ccccc2)n1 (stereo unspecified) | < 1.2
CCN(CC)CCOc1ccc2c(c1)C(=NNC(=O)c1ccccn1)c1cc(OCCN(CC)CC)ccc1-2 | 530
COc1ccc(NC(=O)C2Cc3c(-c4cccc(NC(C)=O)c4)ccnc3O2)cc1 (stereo unspecified) | 1560
COc1ccc(NC(=O)CSc2c3c(nc4ccccc24)CCCC3)c(OC)c1 | 9240
CC(=O)c1cccc(-c2ccnc3c2CC(C(=O)NCc2ccco2)O3)c1 (stereo unspecified) | 967
CC(/C=N/NC(=O)c1cc(-c2ccccc2)nc2ccccc12)=C\c1ccco1 | 2040
Brc1ccc(C2=Nn3c(nnc3-c3n[nH]c4c3CCC4)SC2)cc1 | 407
COc1cc(C(=O)OCC(C)=O)ccc1OCc1c(C)noc1C | 3270
COc1cccc(N2CCN(C(=O)c3ccc(CS(=O)c4ccc(C)cc4)o3)CC2)c1 (stereo unspecified) | 110
COc1ccc(S(=O)(=O)N2N=C(C)Oc3ccccc3C2=O)cc1 | 1250
NNC(=O)c1oc2nc(-c3cccs3)cc(-c3ccco3)c2c1N | 2640
COc1cc([C@@H]2c3cc4c(cc3[C@@H](OC)[C@H]3COC(=O)[C@H]23)OCO4)cc(OC)c1O | 501
O=C1NC(=O)C(=Cc2c(Cl)cccc2Cl)C(=O)N1 | 2240
CN(C1=C(NC(=O)c2ccc(Cl)cc2)C(=O)c2ccccc2C1=O)c1ccccc1 | 3410
CCN(CC)CCNc1ccc(CO)c2oc3cc(Cl)ccc3c(=O)c12 | 2820
COc1ccc(Cl)cc1NC(=O)Nc1ccc(C(=O)N2CCCC2)cc1 | 4030
CCc1ccc(/C=N/NC(=O)c2nnn(-c3nonc3N)c2C(C)C)cc1 | 6420
Cc1cc2c(cc(C(=O)OCC(=O)NCc3cccs3)n2C(C)C)o1 | 1740
Cc1ccc(C(=O)N/C(=C/c2ccco2)C(=O)NCCc2c[nH]c3ccccc23)cc1 | 2670
COc1cc(COCC(O)CN2CCN(CCN3C(=O)c4cccc5cccc(c45)C3=O)CC2)cc(OC)c1OC (stereo unspecified) | 1230
Cc1ccc(N=Nc2c(N)nn(-c3ccccc3)c2N)cc1 | 602
CCN(CC)CCCNC(=O)CSc1c2c(nc3cc(Cl)ccc13)CCCC2 | 11400

Compound | AC26 [nM]
Cc1cc(C)c2sc(NC(=O)c3ccc([N+](=O)[O-])o3)nc2c1 | 6640
COc1ccc(CC(=O)N(Cc2ccccc2)c2ccc(C)cc2)cc1OC | 716
CNc1ccc(Br)cc(C(=O)/C=C/c2ccc(OC)cc2)c1=O | 2660
Cc1cnc(C(=O)Nc2ccc(OC(F)(F)F)cc2)cn1 | 9150
COc1ccccc1-c1c(C#N)c(N)nc2c1CCc1ccccc1-2 | 592
Cc1noc(C)c1COc1cccc(C(=O)OC(C)C(=O)Nc2ccc3c(c2)OCO3)c1 (stereo unspecified) | 40.4
O=C(Nc1ccccc1)N(CCN1CCOCC1)Cc1ccccc1F | 1360
COc1ccc(OC)c(Nc2cc3ccccc3c(=O)[nH]2)c1 | 207
COc1ccc2nc3ccccc3nc2c1NC(=O)c1ccccc1Cl | 11400
O=C(C=Cc1cccc(O)c1)c1ccccc1O | 3290
COc1cc2c(c(OC)c1OC)-c1ccc(OC)c(=O)cc1[C@@H](N(C)CC#CCO)CC2 | 380
CN(C)C(CNC(=O)CSc1nc2sc3c(c2c(=O)n1C)CCCC3)c1ccccc1 (stereo unspecified) | 387
CCOC(=O)c1cnc2c(C)cc(C)cc2c1NCCCN1CCOCC1 | 3470
CCN1C(=O)Nc2cccc3cccc1c23 | 3360
CCOC(=O)Nc1nc2ccc(Cn3cccc3)cc2[nH]1 | 674
COc1ccc(-c2nn(C)c(=O)c3ccccc23)cc1NS(C)(=O)=O | 4620
CC(C)N(CC(=O)Nc1ccc(Cl)cc1C(F)(F)F)C(=O)CCl | 14500
CC(Nc1nc(-c2ccccc2)nc2ccccc12)c1ccccc1 (stereo unspecified) | 80.3
O=C1/C(=C\c2ccc(Cl)cc2)CCC1CNc1ccc(Cl)cc1 (stereo unspecified) | 5490
O=C(NCc1ccccc1)C1Cc2c(-c3cccc(F)c3)ccnc2O1 (stereo unspecified) | 11.2
COc1ccc(Sc2nnc(Cc3ccccc3)c3ccccc23)cc1 | 2880
Cn1c(=O)n(C)c2cc(NC(=O)CCl)ccc21 | 2090
CCCCc1ccc(N/C(N)=N/c2nc(C)cc(C)n2)cc1 | 4690

Compound | AC26 [nM]
O=C(CSCc1ccco1)Nc1cc(C(F)(F)F)ccc1N1CCOCC1 | 2080
Cc1cc(C)c2c(N)c3cccc(C)c3nc2n1 | 478
CC(=O)c1cccc(-c2ccnc3c2CC(C(=O)NCc2ccc(F)c(F)c2)O3)c1 (stereo unspecified) | 1370
Nc1c2ccccc2nc2ccccc12 | 364
Cn1nc(C(F)(F)F)c(/C=N/OC(=O)c2ccccc2Cl)c1SCc1ccc(Cl)cc1 | 3940
O=C(/C=C/c1ccco1)Nc1nnc(-c2ccco2)s1 | 310
COc1cc(F)ccc1-c1csc(C(NC(C)=O)c2cccc(F)c2)n1 (stereo unspecified) | 206
O=C1NC(=O)N(Cc2ccco2)C(=O)/C1=C/C=C/c1ccco1 | 953
O=c1[nH]c(-c2ccccc2)nc2sc(-c3ccccc3)cc12 | 2320
Cc1cccc2c1NC(=O)/C2=C\C(=O)c1cccs1 | 4260
CC(C)Oc1ccc(C(=O)/C=C2/C(=O)Nc3ccccc32)cc1 | 3230
CC12CC[C@H]3[C@@H](CCC4(O)C[C@H](O)CCC34/C=N/NC(=O)c3ccccc3[N+](=O)[O-])C1(O)CCC2C1=CC(=O)OC1 (stereo partly specified) | 4280
COc1cc2nc(NC(=O)c3ccc(F)cc3Cl)sc(=O)c2cc1OC | 1900
O=C(NCCCn1ccnc1)c1cc(-c2cccs2)on1 | 3430
CCOc1ccc2nc(NCCNC(=O)Nc3cccc(C)c3)c(C#N)cc2c1 | 4010
COc1ccc(-c2cc3ccccc3oc2=O)cc1NC(=O)c1ccc([N+](=O)[O-])o1 | 751
C[C@H]1CN([C@@H](C)CO)C(=O)Cc2cc(NC(=O)CCC(F)(F)F)ccc2O[C@H]1CN(C)S(=O)(=O)c1ccc(Cl)cc1 | 2260
CSc1ccc(/C=N/NC(=O)c2ccccc2Cl)cc1 | 3680
COc1ccc(C(=O)c2cc(OC)c(OC)c(OC)c2)cc1OC | 1250
Cc1ccc(CSc2ccc3nnc(-c4cccnc4)n3n2)cc1 | 1170
COc1ccc(C(=O)/C=C/c2ccccc2)c(O)c1 | 1520
O=C1[C@@H]2Cc3c([nH]c4ccccc34)C(c3ccc([N+](=O)[O-])cc3)N2C(=O)CN1C1CC1 (stereo partly specified) | 11500
CCOC(=O)c1nnc(-c2ccc(C)cc2)nc1Sc1ccccc1Cl | 6170

Compound | AC26 [nM]
O=c1[nH]c(=O)n([C@H]2C[C@H](O)[C@@H](CO)O2)cc1I | 5190
Cc1cc([N+](=O)[O-])ccc1-c1ccc(/C=N/NC(=O)c2ccc(Br)o2)o1 | 4510
O=C(NCCCN1CCOCC1)c1cc(-c2ccccc2)on1 | 5780
FC(F)(F)c1cccc(Sc2nc(-c3ccccc3)nnc2C(F)(F)F)c1 | 2340
O=C(/C=C/c1c[nH]c2ccccc12)c1cccc2ccccc12 | 5410
N=c1c(C(=O)NCc2ccco2)cc2c(=O)n3ccccc3nc2n1CCc1ccccc1 | 707
COc1ccc(CC(=O)NCc2ccc(-n3cccc3)cc2)cc1OC | 825
CCc1ccc(N2C(=O)Nc3ccccc3C2(O)C(=O)N2CCN(c3ccccn3)CC2)cc1 (stereo unspecified) | 625
COc1ccc(CCNc2c3ccccc3nc3ccccc23)cc1OC | 1040
CCOC(=O)[C@H]1[C@H]2COc3ccc(Br)cc3[C@@H]2N2C(=O)c3cc(OC)c(OC)cc3NC(=O)[C@@]12C | 4040
Cn1c(=O)n(C)c2cc(S(=O)(=O)N3CCCc4ccccc43)ccc21 | 3550
O=C1CCCC2=C1C(c1ccco1)Nc1ccc(C(=O)c3ccccc3)cc1N2 (stereo unspecified) | 16500
O=C1CCNc2cc3ccccc3cc21 | 32.5
CC1CCCCN1C(=O)NC12CC3CC(CC(C3)C1)C2 (stereo unspecified) | 4170
CCc1ccc2[nH]c3nc(SCC(=O)NNC(=O)c4ccc(C(C)(C)C)cc4)nnc3c2c1 | 4110
CN1CCN(CC(=O)Nc2cc(N(C)C)nc3ccccc23)CC1 | 6650
COc1ccc(-c2cc(C)no2)cc1S(=O)(=O)Nc1ccccc1 | 3740
CC(=O)Nc1cccc(-c2ccnc3c2CC(C)(C(=O)NCCc2ccccc2)O3)c1 (stereo unspecified) | 1370
COc1ccc(C(=O)/C=C2/C(=O)Nc3ccccc32)cc1OC | 714
